pIC50: −log10 of the molar value.
What was measured:
Experiment in all cases: PI3K Inhibition Assay
[1] = biological target: Phosphatidylinositol 3-kinase regulatory subunit beta/4,5-bisphosphate 3-kinase catalytic subunit delta isoform (Homo sapiens, UniProt O00329+O00459); settings: pH 7.5; 22 °C
Procedure: (§1) Inhibition of PI3K enzyme activity is measured in a microtiter plate-based fluorescence polarization (FP) assay.

[2] = biological target: Phosphatidylinositol 3-kinase regulatory subunit beta/4,5-bisphosphate 3-kinase catalytic subunit beta isoform (Homo sapiens, UniProt P42338); settings: pH 7.5; 22 °C
Phosphatidylinositol 3-kinase regulatory subunit beta/4,5-bisphosphate 3-kinase catalytic subunit beta isoform, sequence (P42338 whole entry, canonical isoform): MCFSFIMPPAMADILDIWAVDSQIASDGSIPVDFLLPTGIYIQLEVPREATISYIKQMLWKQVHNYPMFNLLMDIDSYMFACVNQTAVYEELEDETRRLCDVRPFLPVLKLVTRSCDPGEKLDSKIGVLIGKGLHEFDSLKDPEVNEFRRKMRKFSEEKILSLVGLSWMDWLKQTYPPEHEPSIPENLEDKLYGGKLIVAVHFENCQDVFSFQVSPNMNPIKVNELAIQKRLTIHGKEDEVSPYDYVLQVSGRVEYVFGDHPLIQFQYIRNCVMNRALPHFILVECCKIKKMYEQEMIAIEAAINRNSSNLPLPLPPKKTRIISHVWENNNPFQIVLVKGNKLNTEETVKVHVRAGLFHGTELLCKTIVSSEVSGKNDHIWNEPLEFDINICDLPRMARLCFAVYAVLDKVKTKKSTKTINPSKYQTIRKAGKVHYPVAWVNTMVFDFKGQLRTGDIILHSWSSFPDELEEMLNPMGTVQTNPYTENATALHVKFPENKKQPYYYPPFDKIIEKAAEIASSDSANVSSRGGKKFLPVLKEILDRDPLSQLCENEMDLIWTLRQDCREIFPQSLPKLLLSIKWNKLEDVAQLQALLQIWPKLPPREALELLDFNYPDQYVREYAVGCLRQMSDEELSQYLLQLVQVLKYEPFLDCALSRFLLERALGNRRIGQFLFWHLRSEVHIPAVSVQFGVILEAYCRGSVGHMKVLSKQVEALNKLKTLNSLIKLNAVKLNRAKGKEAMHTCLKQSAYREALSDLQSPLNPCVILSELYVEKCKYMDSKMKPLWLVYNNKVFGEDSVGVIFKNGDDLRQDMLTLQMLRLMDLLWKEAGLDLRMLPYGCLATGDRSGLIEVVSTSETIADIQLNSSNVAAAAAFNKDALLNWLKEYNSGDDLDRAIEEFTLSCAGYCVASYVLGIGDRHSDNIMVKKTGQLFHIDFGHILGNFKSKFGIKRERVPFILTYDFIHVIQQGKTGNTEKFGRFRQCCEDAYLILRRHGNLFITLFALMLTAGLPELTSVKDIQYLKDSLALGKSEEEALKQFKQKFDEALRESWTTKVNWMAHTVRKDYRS
Phosphatidylinositol 3-kinase regulatory subunit beta/4,5-bisphosphate 3-kinase catalytic subunit beta isoform, sequence (O00459 whole entry, further chain, canonical isoform): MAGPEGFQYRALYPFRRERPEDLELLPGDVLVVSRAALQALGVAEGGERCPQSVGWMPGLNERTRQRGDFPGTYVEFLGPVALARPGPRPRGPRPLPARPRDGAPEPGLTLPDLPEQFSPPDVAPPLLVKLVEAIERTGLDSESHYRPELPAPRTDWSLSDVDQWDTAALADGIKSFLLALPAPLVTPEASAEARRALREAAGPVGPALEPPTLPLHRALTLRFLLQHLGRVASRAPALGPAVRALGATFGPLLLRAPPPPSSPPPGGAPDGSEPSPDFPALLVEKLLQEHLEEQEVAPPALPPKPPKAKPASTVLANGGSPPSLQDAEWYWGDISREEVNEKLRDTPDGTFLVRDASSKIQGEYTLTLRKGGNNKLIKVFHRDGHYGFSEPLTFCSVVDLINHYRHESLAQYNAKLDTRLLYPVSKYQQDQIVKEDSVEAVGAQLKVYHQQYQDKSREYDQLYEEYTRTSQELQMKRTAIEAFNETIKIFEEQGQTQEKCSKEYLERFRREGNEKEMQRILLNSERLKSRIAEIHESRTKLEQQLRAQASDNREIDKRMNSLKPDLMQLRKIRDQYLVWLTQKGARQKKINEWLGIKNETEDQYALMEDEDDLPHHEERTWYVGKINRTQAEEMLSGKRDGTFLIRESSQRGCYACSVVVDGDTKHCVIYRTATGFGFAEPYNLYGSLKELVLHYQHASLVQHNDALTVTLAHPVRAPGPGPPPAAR
Procedure: as §1

[3] = biological target: Phosphatidylinositol 4,5-bisphosphate 3-kinase catalytic subunit gamma isoform/Phosphoinositide 3-kinase regulatory subunit 5 (Homo sapiens, UniProt P48736); settings: pH 7.5; 22 °C
Procedure: as §1

[4] = biological target: Phosphatidylinositol 3-kinase regulatory subunit alpha/4,5-bisphosphate 3-kinase catalytic subunit alpha isoform (Homo sapiens, UniProt P42336)
Phosphatidylinositol 3-kinase regulatory subunit alpha/4,5-bisphosphate 3-kinase catalytic subunit alpha isoform, sequence (P27986 whole entry, canonical isoform): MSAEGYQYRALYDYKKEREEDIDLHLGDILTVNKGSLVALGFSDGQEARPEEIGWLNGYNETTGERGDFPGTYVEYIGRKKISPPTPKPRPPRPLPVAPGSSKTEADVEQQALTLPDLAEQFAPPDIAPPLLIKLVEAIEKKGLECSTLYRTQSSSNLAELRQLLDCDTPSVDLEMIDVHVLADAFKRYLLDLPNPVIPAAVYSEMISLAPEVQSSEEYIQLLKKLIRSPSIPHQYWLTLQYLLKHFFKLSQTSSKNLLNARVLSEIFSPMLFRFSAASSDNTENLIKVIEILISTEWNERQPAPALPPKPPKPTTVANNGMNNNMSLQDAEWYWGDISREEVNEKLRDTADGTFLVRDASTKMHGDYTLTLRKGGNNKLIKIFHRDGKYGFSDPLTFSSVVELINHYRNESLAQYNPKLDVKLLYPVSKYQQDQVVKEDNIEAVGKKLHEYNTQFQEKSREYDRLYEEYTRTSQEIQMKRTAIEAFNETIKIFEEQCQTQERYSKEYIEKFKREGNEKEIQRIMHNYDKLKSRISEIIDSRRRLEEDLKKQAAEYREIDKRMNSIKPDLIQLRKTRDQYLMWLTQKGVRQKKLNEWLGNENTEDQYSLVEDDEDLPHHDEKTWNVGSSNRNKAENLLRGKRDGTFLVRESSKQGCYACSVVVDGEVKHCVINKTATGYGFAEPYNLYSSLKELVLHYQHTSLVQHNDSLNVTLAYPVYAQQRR
Phosphatidylinositol 3-kinase regulatory subunit alpha/4,5-bisphosphate 3-kinase catalytic subunit alpha isoform, sequence (P42336 whole entry, canonical isoform): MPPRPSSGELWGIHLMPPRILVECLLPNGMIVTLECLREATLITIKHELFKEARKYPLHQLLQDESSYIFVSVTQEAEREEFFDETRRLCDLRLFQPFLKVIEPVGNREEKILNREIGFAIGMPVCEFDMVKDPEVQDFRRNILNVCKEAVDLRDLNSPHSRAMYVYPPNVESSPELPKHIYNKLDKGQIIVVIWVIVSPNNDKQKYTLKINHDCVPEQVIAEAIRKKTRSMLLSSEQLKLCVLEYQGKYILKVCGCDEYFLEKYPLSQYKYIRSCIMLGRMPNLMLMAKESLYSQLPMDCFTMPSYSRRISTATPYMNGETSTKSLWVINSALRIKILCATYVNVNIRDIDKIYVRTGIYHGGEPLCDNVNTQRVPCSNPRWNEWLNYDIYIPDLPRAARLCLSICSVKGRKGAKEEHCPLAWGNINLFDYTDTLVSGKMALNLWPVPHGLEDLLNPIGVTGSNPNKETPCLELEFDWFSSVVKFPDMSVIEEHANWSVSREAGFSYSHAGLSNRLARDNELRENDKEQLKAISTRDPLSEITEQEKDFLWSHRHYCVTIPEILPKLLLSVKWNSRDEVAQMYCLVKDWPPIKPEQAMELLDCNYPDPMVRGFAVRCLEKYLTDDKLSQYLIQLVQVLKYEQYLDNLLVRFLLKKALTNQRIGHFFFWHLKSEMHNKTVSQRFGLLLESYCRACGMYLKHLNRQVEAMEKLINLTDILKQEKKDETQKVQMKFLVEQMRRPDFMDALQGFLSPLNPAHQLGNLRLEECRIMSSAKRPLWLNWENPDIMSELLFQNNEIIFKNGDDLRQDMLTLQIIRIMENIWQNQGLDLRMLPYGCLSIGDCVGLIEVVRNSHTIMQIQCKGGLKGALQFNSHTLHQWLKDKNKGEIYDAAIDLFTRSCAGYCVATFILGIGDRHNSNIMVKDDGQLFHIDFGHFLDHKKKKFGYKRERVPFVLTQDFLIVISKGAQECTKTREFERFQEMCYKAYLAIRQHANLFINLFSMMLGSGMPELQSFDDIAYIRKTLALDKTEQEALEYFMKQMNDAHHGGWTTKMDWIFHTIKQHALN
Procedure: as §1

Phosphatidylinositol 3-kinase regulatory subunit beta/4,5-bisphosphate 3-kinase catalytic subunit delta isoform, sequence (O00459 whole entry, canonical isoform): as the sequence (O00459 whole entry, further chain, canonical isoform) above
Phosphatidylinositol 3-kinase regulatory subunit beta/4,5-bisphosphate 3-kinase catalytic subunit delta isoform, sequence (O00329 whole entry, canonical isoform): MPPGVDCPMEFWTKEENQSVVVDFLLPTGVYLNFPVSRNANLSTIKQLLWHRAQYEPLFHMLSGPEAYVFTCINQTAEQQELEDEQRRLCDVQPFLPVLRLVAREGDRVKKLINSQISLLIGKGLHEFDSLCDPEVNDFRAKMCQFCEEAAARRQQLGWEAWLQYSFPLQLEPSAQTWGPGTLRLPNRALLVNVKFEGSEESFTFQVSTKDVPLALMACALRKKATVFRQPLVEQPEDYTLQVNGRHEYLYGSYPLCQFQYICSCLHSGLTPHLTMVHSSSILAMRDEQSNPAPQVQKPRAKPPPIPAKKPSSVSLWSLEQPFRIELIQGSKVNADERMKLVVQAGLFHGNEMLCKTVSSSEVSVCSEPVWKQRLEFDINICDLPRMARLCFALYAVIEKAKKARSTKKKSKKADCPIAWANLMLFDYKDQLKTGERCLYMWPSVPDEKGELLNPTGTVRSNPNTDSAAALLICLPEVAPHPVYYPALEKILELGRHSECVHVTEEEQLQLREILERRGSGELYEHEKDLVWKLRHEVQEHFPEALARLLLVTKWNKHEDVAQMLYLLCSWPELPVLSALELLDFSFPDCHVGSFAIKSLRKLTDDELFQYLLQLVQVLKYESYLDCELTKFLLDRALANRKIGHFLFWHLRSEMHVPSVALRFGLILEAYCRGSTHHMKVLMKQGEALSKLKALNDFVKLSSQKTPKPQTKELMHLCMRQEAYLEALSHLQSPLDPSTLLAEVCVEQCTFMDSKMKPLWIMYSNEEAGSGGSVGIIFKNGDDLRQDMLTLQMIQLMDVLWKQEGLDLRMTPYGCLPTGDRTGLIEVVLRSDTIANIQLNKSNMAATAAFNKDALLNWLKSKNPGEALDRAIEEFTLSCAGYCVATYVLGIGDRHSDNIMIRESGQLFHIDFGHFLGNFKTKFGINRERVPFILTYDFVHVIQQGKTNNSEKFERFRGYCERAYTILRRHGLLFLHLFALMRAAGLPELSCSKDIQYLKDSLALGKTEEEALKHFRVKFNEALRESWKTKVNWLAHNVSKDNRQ

Row | Compound | pIC50 [1] | pIC50 [2] | pIC50 [3] | pIC50 ([4]; pH 7.5, 22 °C) | pIC50 [4]
1 | COC[C@H]1OC(=O)C(=CN(C)CCCN(C)C)C2C(=O)C(=O)C3=C([C@H](OC(C)=O)C[C@@]4(C)C3CC[C@@H]4O)[C@]21C (stereo partly drawn) [(2R,3S,6Z,14S,15S,17R)-6-({[3-(dimethylamino)propyl](methyl)amino}methylidene)-8,14-dihydroxy-3-(methoxymethyl)-2,15-dimethyl-5,9-dioxo-4-oxatetracyclo[8.7.0.0^{2,7}.0^{11,15}]heptadeca-1(10),7-dien-17-yl acetate] | 7.96 | 7.89 | 8.10 | 8.19 | 
2 | COC[C@H]1OC(=O)C(=CN(C)CC(=O)OC(C)(C)C)C2C(=O)C(=O)C3=C([C@H](OC(C)=O)C[C@@]4(C)C3CC[C@@H]4O)[C@]21C (stereo partly drawn) [tert-butyl 2-({[(2R,3S,6E,14S,15S,17R)-17-(acetyloxy)-8,14-dihydroxy-3-(methoxymethyl)-2,15-dimethyl-5,9-dioxo-4-oxatetracyclo[8.7.0.0^{2,7}.0^{11,15}]heptadeca-1(10),7-dien-6-ylidene]methyl}(methyl)amino)acetate] |  |  |  |  | 5.80

From BindingDB's records for doi:10.1021/jm7012858 (Wyeth Research, 2008)
